From paper PMC11579512, “Deoxybouvardin-glucoside induces apoptosis in non-small cell lung cancer cells by targeting EGFR/MET and AKT signaling pathway” (EXCLI Journal, 2024)

Tests used:
[1] = tested on: p-EGFR (Y1068); assay: Western blot p-EGFR (Y1068) in HCC827 and HCC827GR cells; format: cell-based, human; details: DBG 3, 6, 12 nM, 48 h
Protocol: (§1) HaCaT cells were grown in DMEM, whereas HCC827 and HCC827GR cells were grown in RPMI 1640. All culture media were supplemented with FBS (10 %) and P/S (1 %), and the cells were grown at 37 °C in 5 % CO2.
(§2) Cells were lysed in RIPA buffer, and protein concentration was determined using a Bio-Rad DC Protein Assay kit (Bio-Rad, Hercules, CA, USA). Protein samples from the cell lysates were resolved by sodium dodecyl sulfate-polyacrylamide gel electrophoresis and then transferred onto polyvinylidene fluoride membranes. The membranes were blocked with 3 % or 5 % skim milk and then incubated at 4 °C overnight with the indicated primary antibodies, followed by the corresponding horseradish peroxidase-conjugated secondary antibodies at RT for 2 h. Protein bands were visualized using western blotting luminol reagent solution and ImageQuant LAS 500 (GE Healthcare, Uppsala, Sweden). The density of the bands was quantified using ImageJ software (NIH, Bethesda, MD, USA).

[2] = tested on: Bim; assay: Immunoblot Bim in HCC827 and HCC827GR cells; format: cell-based, human; details: for Bim protein Ratio: DBG 0 nM 0.47
Protocol: as §1, §2

[3] = molecular target: T1, EGFR (Homo sapiens, UniProt P00533); assay: In vitro ADP-Glo kinase assay, EGFR; format: biochemical
T1 construct: purchased Promega
T1 sequence (P00533 25-1210): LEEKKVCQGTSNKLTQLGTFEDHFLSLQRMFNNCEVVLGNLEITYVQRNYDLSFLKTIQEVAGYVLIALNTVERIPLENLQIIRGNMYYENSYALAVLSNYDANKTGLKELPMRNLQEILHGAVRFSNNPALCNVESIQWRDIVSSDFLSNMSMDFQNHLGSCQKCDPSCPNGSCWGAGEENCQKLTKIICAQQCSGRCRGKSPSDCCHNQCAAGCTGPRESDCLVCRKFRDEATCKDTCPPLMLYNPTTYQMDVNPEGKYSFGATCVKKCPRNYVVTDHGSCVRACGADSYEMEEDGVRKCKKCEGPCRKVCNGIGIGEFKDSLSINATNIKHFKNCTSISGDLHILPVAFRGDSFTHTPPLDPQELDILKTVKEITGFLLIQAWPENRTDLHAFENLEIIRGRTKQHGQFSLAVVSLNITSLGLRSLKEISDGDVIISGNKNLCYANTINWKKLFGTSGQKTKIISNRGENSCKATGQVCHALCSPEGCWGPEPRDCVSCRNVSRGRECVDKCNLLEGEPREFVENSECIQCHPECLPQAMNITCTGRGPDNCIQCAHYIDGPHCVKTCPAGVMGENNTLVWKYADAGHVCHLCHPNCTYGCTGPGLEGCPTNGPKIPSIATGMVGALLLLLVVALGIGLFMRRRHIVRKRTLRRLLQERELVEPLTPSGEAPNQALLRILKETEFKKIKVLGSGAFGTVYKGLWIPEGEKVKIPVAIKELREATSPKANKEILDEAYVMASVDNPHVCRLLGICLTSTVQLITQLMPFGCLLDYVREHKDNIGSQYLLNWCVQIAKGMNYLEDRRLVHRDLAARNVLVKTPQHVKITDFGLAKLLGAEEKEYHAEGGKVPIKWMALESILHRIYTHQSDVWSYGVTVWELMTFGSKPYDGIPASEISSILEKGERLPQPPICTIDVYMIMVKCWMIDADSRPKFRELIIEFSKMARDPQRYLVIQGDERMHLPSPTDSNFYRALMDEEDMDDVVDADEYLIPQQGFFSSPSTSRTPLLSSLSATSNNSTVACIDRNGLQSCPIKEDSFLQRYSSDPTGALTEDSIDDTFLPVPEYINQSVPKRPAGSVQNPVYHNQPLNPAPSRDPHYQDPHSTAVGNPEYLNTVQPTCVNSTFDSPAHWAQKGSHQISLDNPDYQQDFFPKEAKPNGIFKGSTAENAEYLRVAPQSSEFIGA
Protocol: Subsequently, each well was added with ADP-Glo reagent and incubated for another 40 min. After completion of the kinase reaction, each well was added with kinase activity detection reagent and then incubated for 30 min. Liquid was dispensed with I.DOT (Dispendix, Stuttgart, Germany). Luminescence was measured on a Centro LB 960 microplate luminometer (Berthold Technologies).

[4] = tested on: HCC827GR cells; assay: Intracellular ROS (Muse Oxidative Stress Kit), HCC827GR; format: cell-based, human; details: 48 h, control 16.69 %
Protocol: as §1
The levels of intracellular ROS were measured using a Muse™ Oxidative Stress Kit (MCH100111, Merck Millipore) in accordance with the manufacturer's instructions. The cells were incubated with a Muse™ Oxidative Stress Reagent working solution in the dark at 37 °C for 30 min. Intracellular ROS generation was measured using a Muse™ Cell Analyzer.

[5] = tested on: HCC827 cells; assay: Annexin V/7-AAD apoptosis, HCC827; format: cell-based, human; set-up: Early apoptosis / Total apopt / Dead / Live: unit not given here; details: for apoptotic cells (annexin V+): 48 h, background 4.78 %; for Dead / Early apoptosis / Late apoptosis/Dead / Total apopt / Live: HCC827
Protocol: as §1
Apoptosis was measured using a Muse™ Annexin V & Dead Cell Kit (MCH100105, Merck Millipore). The fluorescent signal was analyzed with a Muse™ Cell Analyzer.

With COc1ccc(C[C@H]2C(=O)N[C@@H](C)C(=O)N(C)[C@H]3Cc4ccc(cc4)Oc4cc(ccc4O[C@@H]4O[C@H](CO)[C@@H](O)[C@H](O)[C@H]4O)C[C@@H](C(=O)N[C@H](C)C(=O)N[C@@H](C)C(=O)N2C)N(C)C3=O)cc1 [DBG, deoxybouvardin glucoside] the “phosphorylation level of EGFR” value [1] was “decreased”, the Bim protein/actin ([2]; HCC827, DBG 3 nM, DBG 0 nM 0.53) was 0.53 and the “Bim protein Ratio” value ([2]; HCC827, DBG 3 nM, relative to DBG 12 nM = 1.00) was 0.48. The Bim protein/actin ([2]; HCC827, DBG 6 nM, DBG 0 nM 0.53) was 0.73, the “Bim protein Ratio” value ([2]; HCC827, DBG 6 nM, relative to DBG 12 nM = 1.00) was 0.65 and the “Bim protein Ratio” value ([2]; HCC827, DBG 12 nM (reference of the ratio, 1.00)) was 1.00. For the same compound, the Bim protein/actin ([2]; HCC827, DBG 12 nM, DBG 0 nM 0.53) was 1.12, the Bim protein/actin ([2]; HCC827GR, DBG 3 nM, DBG 0 nM 0.15) was 0.23 and the “level of Bim” value ([2]; NSCLC cells, DBG) was “increased”. The IC50 ([3]; ADP-Glo, EGFR 4 ng, RT, 60 min, luminescence, n=3) was 7.23 nM, the “kinase activity, in words” value ([3]; DBG 3, 6, 12 nM) was “significantly inhibited” and the ROS level ([4]; DBG 3 nM) was 36.89%. For the same compound, the ROS level ([4]; DBG 6 nM) was 39.97%, the ROS level ([4]; DBG 12 nM) was 47.92% and the “apoptotic cells (annexin V+)” value ([5]; DBG 3 nM) was 9.60%. The “apoptotic cells (annexin V+)” value ([5]; DBG 6 nM) was 15.30%, the “apoptotic cells (annexin V+)” value ([5]; DBG 12 nM) was 44.90% and the Dead ([5]; DBG 3 nM, mean of 3 samples, untreated 1.21) was 1.72. The Early apoptosis ([5]; DBG 3 nM, mean of 3 samples, untreated 1.30) was 3.33, the “Late apoptosis/Dead” value ([5]; DBG 3 nM, mean of 3 samples, untreated 3.48) was 6.27 and the Total apopt ([5]; DBG 3 nM, mean of 3 samples, untreated 4.78) was 9.60. The Live ([5]; DBG 3 nM, mean of 3 samples, untreated 94.01) was 88.68, the Dead ([5]; DBG 3 nM, replicate 1) was 1.90 and the Early apoptosis ([5]; DBG 3 nM, replicate 1) was 3.35. The “Late apoptosis/Dead” value ([5]; DBG 3 nM, replicate 1) was 5.90, the Live ([5]; DBG 3 nM, replicate 1) was 88.85 and the Total apopt ([5]; DBG 3 nM, replicate 1) was 9.25. The Dead ([5]; DBG 3 nM, replicate 2) was 1.75, the Early apoptosis ([5]; DBG 3 nM, replicate 2) was 3.40 and the “Late apoptosis/Dead” value ([5]; DBG 3 nM, replicate 2) was 5.90. For the same compound, the Live ([5]; DBG 3 nM, replicate 2) was 88.95, the Total apopt ([5]; DBG 3 nM, replicate 2) was 9.30 and the Dead ([5]; DBG 3 nM, replicate 3) was 1.50. The Early apoptosis ([5]; DBG 3 nM, replicate 3) was 3.25, the “Late apoptosis/Dead” value ([5]; DBG 3 nM, replicate 3) was 7.00 and the Live ([5]; DBG 3 nM, replicate 3) was 88.25. The Total apopt ([5]; DBG 3 nM, replicate 3) was 10.25, the Dead ([5]; DBG 6 nM, mean of 3 samples, untreated 1.21) was 1.75 and the Early apoptosis ([5]; DBG 6 nM, mean of 3 samples, untreated 1.30) was 6.37. The “Late apoptosis/Dead” value ([5]; DBG 6 nM, mean of 3 samples, untreated 3.48) was 8.93, the Total apopt ([5]; DBG 6 nM, mean of 3 samples, untreated 4.78) was 15.30 and the Live ([5]; DBG 6 nM, mean of 3 samples, untreated 94.01) was 82.95. For the same compound, the Dead ([5]; DBG 6 nM, replicate 1) was 1.70, the Early apoptosis ([5]; DBG 6 nM, replicate 1) was 6.40 and the “Late apoptosis/Dead” value ([5]; DBG 6 nM, replicate 1) was 9.25. For the same compound, the Live ([5]; DBG 6 nM, replicate 1) was 82.65, the Total apopt ([5]; DBG 6 nM, replicate 1) was 15.65 and the Dead ([5]; DBG 6 nM, replicate 2) was 1.90. For the same compound, the Early apoptosis ([5]; DBG 6 nM, replicate 2) was 6.75, the “Late apoptosis/Dead” value ([5]; DBG 6 nM, replicate 2) was 8.15 and the Live ([5]; DBG 6 nM, replicate 2) was 83.20. For the same compound, the Total apopt ([5]; DBG 6 nM, replicate 2) was 14.90, the Dead ([5]; DBG 6 nM, replicate 3) was 1.65 and the Early apoptosis ([5]; DBG 6 nM, replicate 3) was 5.95. For the same compound, the “Late apoptosis/Dead” value ([5]; DBG 6 nM, replicate 3) was 9.40, the Live ([5]; DBG 6 nM, replicate 3) was 83.00 and the Total apopt ([5]; DBG 6 nM, replicate 3) was 15.35. The Dead ([5]; DBG 12 nM, mean of 3 samples, untreated 1.21) was 4.72, the Early apoptosis ([5]; DBG 12 nM, mean of 3 samples, untreated 1.30) was 19.42 and the “Late apoptosis/Dead” value ([5]; DBG 12 nM, mean of 3 samples, untreated 3.48) was 25.48. For the same compound, the Total apopt ([5]; DBG 12 nM, mean of 3 samples, untreated 4.78) was 44.90, the Live ([5]; DBG 12 nM, mean of 3 samples, untreated 94.01) was 50.38 and the Dead ([5]; DBG 12 nM, replicate 1) was 4.65. For the same compound, the Early apoptosis ([5]; DBG 12 nM, replicate 1) was 19.00, the “Late apoptosis/Dead” value ([5]; DBG 12 nM, replicate 1) was 25.05 and the Live ([5]; DBG 12 nM, replicate 1) was 51.30. For the same compound, the Total apopt ([5]; DBG 12 nM, replicate 1) was 44.05, the Dead ([5]; DBG 12 nM, replicate 2) was 4.15 and the Early apoptosis ([5]; DBG 12 nM, replicate 2) was 19.25. The “Late apoptosis/Dead” value ([5]; DBG 12 nM, replicate 2) was 25.30, the Live ([5]; DBG 12 nM, replicate 2) was 51.30 and the Total apopt ([5]; DBG 12 nM, replicate 2) was 44.55. The Dead ([5]; DBG 12 nM, replicate 3) was 5.35, the Early apoptosis ([5]; DBG 12 nM, replicate 3) was 20.00 and the “Late apoptosis/Dead” value ([5]; DBG 12 nM, replicate 3) was 26.10. For the same compound, the Live ([5]; DBG 12 nM, replicate 3) was 48.55 and the Total apopt ([5]; DBG 12 nM, replicate 3) was 46.10.
